One may read the pKi as −log10 of the Ki, conventionally taken in molar units. A high value points to a small Ki.

pKi: −log10 of the molar value. Where a name gives a salt, the structure may show the parent alone.

The target of this assay is T1, histamine H3 receptor (Homo sapiens, UniProt Q9Y5N1).
T1 construct: expressed in transfected cells; host or cells: CHO K1 cells carrying pSwitch, transfected with pGeneH3 and induced with mifepristone; clone 3H3; membranes
T1 sequence (Q9Y5N1 whole entry): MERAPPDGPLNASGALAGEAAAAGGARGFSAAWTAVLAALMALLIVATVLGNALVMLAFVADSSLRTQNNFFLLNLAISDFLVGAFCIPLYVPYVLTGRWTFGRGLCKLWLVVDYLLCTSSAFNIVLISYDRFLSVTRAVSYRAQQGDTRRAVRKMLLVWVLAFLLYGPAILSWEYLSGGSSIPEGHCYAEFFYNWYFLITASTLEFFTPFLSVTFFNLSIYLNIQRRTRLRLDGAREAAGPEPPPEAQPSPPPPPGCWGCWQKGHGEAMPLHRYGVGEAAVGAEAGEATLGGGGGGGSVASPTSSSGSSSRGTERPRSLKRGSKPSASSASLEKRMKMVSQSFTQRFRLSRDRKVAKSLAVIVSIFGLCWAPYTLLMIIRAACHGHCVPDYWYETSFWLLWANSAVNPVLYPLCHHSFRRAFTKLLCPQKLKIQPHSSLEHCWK
Nature of the assay: Histamine H3 functional antagonist assay ([35S]GTPγS, SPA, membranes of CHO K1 cells expressing the receptor). Type of assay: biochemical. As to conditions: histamine-stimulated GTPγS binding, membranes with human H3. The source says:
A membrane preparation containing histamine H3 receptors may be prepared in accordance with the following procedures:
(i) Generation of Histamine H3 Cell Line
DNA encoding the human histamine H3 gene (Huvar, A. et al. (1999) Mol. Pharmacol. 55(6), 1101-1107) was cloned into a holding vector, pCDNA3.1 TOPO (InVitrogen) and its cDNA was isolated from this vector by restriction digestion of plasmid DNA with the enzymes BamH1 and Not-1 and ligated into the inducible expression vector pGene (InVitrogen) digested with the same enzymes. The GeneSwitch™ system (a system where in transgene expression is switched off in the absence of an inducer and switched on in the presence of an inducer) was performed as described in U.S. Pat. Nos. 5,364,791; 5,874,534; and 5,935,934. Ligated DNA was transformed into competent DH5α E. coli host bacterial cells and plated onto Luria Broth (LB) agar containing Zeocin™ (an antibiotic which allows the selection of cells expressing the sh ble gene which is present on pGene and pSwitch) at 50 μg ml^−1. Colonies containing the re-ligated plasmid were identified by restriction analysis. DNA for transfection into mammalian cells was prepared from 250 ml cultures of the host bacterium containing the pGeneH3 plasmid and isolated using a DNA preparation kit (Qiagen Midi-Prep) as per manufacturers guidelines (Qiagen).
CHO K1 cells previously transfected with the pSwitch regulatory plasmid (InVitrogen) were seeded at 2×10e6cells per T75 flask in Complete Medium, containing Hams F12 (GIBCOBRL, Life Technologies) medium supplemented with 10% v/v dialysed foetal bovine serum, L-glutamine, and hygromycin ([…]), 24 hours prior to use. Plasmid DNA was transfected into the cells using Lipofectamine plus according to the manufacturers guidelines (InVitrogen). 48 hours post transfection cells were placed into complete medium supplemented with […] Zeocin™.
10-14 days post selection 10 nM Mifepristone (InVitrogen), was added to the culture medium to induce the expression of the receptor. 18 hours post induction cells were detached from the flask using ethylenediamine tetra-acetic acid (EDTA; 1:5000; InVitrogen), following several washes with phosphate buffered saline pH 7.4and resuspended in Sorting Medium containing Minimum Essential Medium (MEM), without phenol red, and supplemented with Earles salts and 3% Foetal Clone II (Hyclone). Approximately 1×10e7 cells were examined for receptor expression by staining with a rabbit polyclonal antibody, 4a, raised against the N-terminal domain of the histamine H3 receptor, incubated on ice for 60 minutes, followed by two washes in sorting medium. Receptor bound antibody was detected by incubation of the cells for 60 minutes on ice with a goat anti rabbit antibody, conjugated with Alexa 488 fluorescence marker (Molecular Probes). Following two further washes with Sorting Medium, cells were filtered through a 50 μm Filcon™ (BD Biosciences) and then analysed on a FACS Vantage SE Flow Cytometer fitted with an Automatic Cell Deposition Unit. Control cells were non-induced cells treated in a similar manner. Positively stained cells were sorted as single cells into 96-well plates, containing Complete Medium containing 500 μg ml^−1 Zeocin™ and allowed to expand before reanalysis for receptor expression via antibody and ligand binding studies. One clone, 3H3, was selected for membrane preparation.
(ii) Membrane Preparation from Cultured Cells
All steps of the protocol are carried out at 4° C. and with pre-cooled reagents. The cell pellet is resuspended in 10 volumes of buffer A2 containing 50 mM N-2-hydroxyethylpiperazine-N′-2-ethanesulfonic acid (HEPES) (pH 7.40) supplemented with […] leupeptin (acetyl-leucyl-leucyl-arginal; Sigma L2884), 25 μg/ml bacitracin (Sigma B0125), 1 mM ethylenediamine tetra-acetic acid (EDTA), 1 mM phenylmethylsulfonyl fluoride (PMSF) and 2×10e-6M pepstain A (Sigma). […]
`CC(C)N1CCC(OC2CCN(c3ccc(C#N)cn3)CC2)CC1` [Example E1, 6-(4-([1-(1-Methylethyl)-4-piperidinyl]oxy}-1-piperidinyl)-3-pyridinecarbonitrile hydrochloride]: the pKi was > 8.00. The value for `N#Cc1ccc(N2CCC(OC3CCN(C4CCC4)CC3)CC2)nc1` [Example E2, 6-{4-[(1-Cyclobutyl-4-piperidinyl)oxy]-1-piperidinyl}-3-pyridinecarbonitrile hydrochloride] was ≥ 9.00; that for `N#Cc1ccc(N2CCC(OC3CCN(C4CCC4)CC3)CC2)cc1` [Example E3, 4-{4-[(1-Cyclobutyl-4-piperidinyl)oxy]-1-piperidinyl}benzonitrile hydrochloride] was ≥ 9.00.

For `CC(C)N1CCC(OC2CCN(c3ccc(C#N)cc3)CC2)CC1` [Example E4, 4-(4-{[1-(1-Methylethyl)-4-piperidinyl]oxy}-1-piperidinyl)benzonitrile hydrochloride], the pKi was ≥ 9.00. The figure for `O=C(c1ccc(N2CCC(OC3CCN(C4CCC4)CC3)CC2)cc1)N1CCOCC1` [Example E5, 4-[(4-{4-[(1-Cyclobutyl-4-piperidinyl)oxy]-1-piperidinyl}phenyl)carbonyl]morpholine hydrochloride] is ≥ 9.00; for `CNC(=O)c1ccc(N2CCC(OC3CCN(C4CCC4)CC3)CC2)cc1` [Example E6, 4-[4-[(1-Cyclobutyl-4-piperidinyl)oxy]-1-piperidinyl)-N-methylbenzamide hydrochloride] it is ≥ 9.00; for `CC(C)N1CCC(OC2CCN(c3ccc(C(=O)N4CCOCC4)cc3)CC2)CC1` [Example E7] it is ≥ 9.00. For the molecule `CC(C)N1CCC(OC2CCN(c3ccc(C(=O)N4CCCCC4)cc3)CC2)CC1` [Example E8], the pKi is ≥ 9.00. The figure for `CC(C)N1CCC(OC2CCN(c3ccc(C(=O)N4CCCC4)cc3)CC2)CC1` [Example E10] is ≥ 9.00; for `O=C(c1ccc(N2CCC(OC3CCN(C4CCC4)CC3)CC2)cc1)N1CCCC1` [Example E11] it is ≥ 9.00. As to `CC(C)N1CCC(OC2CCN(c3ccc(C(=O)N(C)C)cc3)CC2)CC1` [Example E12], the pKi was ≥ 9.00. As to `CN(C)C(=O)c1ccc(N2CCC(OC3CCN(C4CCC4)CC3)CC2)cc1` [Example E13], the negative-log Ki (pKi) is ≥ 9.00. In the case of `CNC(=O)c1ccc(N2CCC(OC3CCN(C(C)C)CC3)CC2)cc1` [Example E14], the pKi was > 8.00.

Turning to `O=C(NCCCCl)c1ccc(N2CCC(OC3CCN(C4CCC4)CC3)CC2)cc1` [Example E15, N-(3-Chloropropyl)-4-{4-[(1-cyclobutyl-4-piperidinyl)oxy]-1-piperidinyl}benzamide hydrochloride], the pKi is ≥ 9.00. As to `Cc1nc(-c2ccc(N3CCC(OC4CCN(C5CCC5)CC4)CC3)cc2)co1` [Example E16, 1-Cyclobutyl-4-({1-[4-(2-methyl-1,3-oxazol-4-yl)phenyl]-4-piperidinyl}oxy)piperidine hydrochloride], the negative-log Ki (pKi) is ≥ 9.00. Turning to `Cc1noc(-c2ccc(N3CCC(OC4CCN(C(C)C)CC4)CC3)cc2)n1` [Example E17, 1-(1-Methylethyl)-4-({1-[4-(3-methyl-1,2,4-oxadiazol-5-yl)phenyl]-4-piperidinyl}oxy)piperidine hydrochloride], the negative logarithm of the Ki (pKi) was > 9.50. As for `Cc1nc(-c2ccc(N3CCC(OC4CCN(C(C)C)CC4)CC3)cc2)co1` [Example E18], the pKi was > 8.00. The figure for `CC(C)N1CCC(OC2CCN(c3ccc(-c4ncco4)cc3)CC2)CC1` [Example E19] is > 8.00. The value for `Cc1ncc(-c2ccc(N3CCC(OC4CCN(C(C)C)CC4)CC3)cc2)o1` [Example E20] was > 8.00. Turning to `c1coc(-c2ccc(N3CCC(OC4CCN(C5CCC5)CC4)CC3)cc2)n1` [Example E21], the negative-log Ki (pKi) is ≥ 9.00.

In the case of `Cc1ncc(-c2ccc(N3CCC(OC4CCN(C5CCC5)CC4)CC3)cc2)o1` [Example E22], the pKi is ≥ 9.00. The value for `Cc1cc(-c2ccc(N3CCC(OC4CCN(C(C)C)CC4)CC3)cc2)on1` [Example E23] was ≥ 9.00.

These data come from US20060247227A1, “Substituted piperidines as histamine h3 receptor ligands” (priority 2003, published 2006).
